Patent US6166062A, “Pharmaceutical compositions containing phospholipase inhibitor” (Shionogi & Co., Ltd., priority 1999, dated 2000)

Experiments:
[1] = solubility of Compound (I) (statement); assay type: physicochemical
Excerpt: Storage of a pharmaceutical composition of Compound (I) prepared by known methods may lead to degradation of its content and a coloring and a worsening of its reconstitution properties, especially in the case of injections to be dissolved before use. It is difficult to provide a pharmaceutical composition of Compound (I) which has good stability and a good reconstitution property, especially for injections of Compound (I) to be dissolved before use, after long storage at room temperature.

[2] = test system: human non-pancreatic secretory phospholipase A2 (sPLA2); conditions: as disclosed in JP-A 7-285933, EP 0 675 110 A1, U.S. Pat. No. 5,654,326; cited from earlier work
[3] = collapse temperature of frozen solutions (freeze dry microscopy); assay type: physicochemical
Excerpt: The term, "collapse temperature," describes the glass transition temperature for amorphous solids or eutectic temperature for crystalline solids. Collapse temperature is that temperature above which the product is not completely frozen. Freeze dry microscoscropy enables measurement of the temperature at which frozen solutions begin to lose their rigid structure during a sublimation process.

CCc1c(C(=O)C(N)=O)c2c(OCC(=O)[O-])cccc2n1Cc1ccccc1.[Na+] [Compound (I), sodium [[3-(2-amino-1,2-dioxoethyl)-2-ethyl-1-(phenylmethyl)-1H-indol-4-yl]oxy]acetate]
solubility [1]: sparingly soluble | inhibitor against human non-pancreatic secretory phospholipase A2 [2]: inhibitor | collapse temperature ([3]; after annealing): about -13 °C | collapse temperature ([3]; before annealing): about -33 °C
